{"source": "patent US5389621A", "about": "“Method of enhancing the anticoagulant effects of aspirin using salicylamide” (University of Medicine and Dentistry of New Jersey, priority 1994, dated 1995)", "key": {"[1]": {"test": "Plasma kinetics of total 14C after oral 14C-salicylamide alone or with aspirin", "assay_type": "in vivo, male Sprague-Dawley rats", "conditions": "for AUC.infin. of 14C: mean ± SE, n=6", "experimental": "Male adult Sprague-Dawley rats (300-325 gm) obtained from Charles River Breeding Laboratory, N. Wilmington, Mass. were quarantined for one week. All animals were identified by ear punching. Food and water were provided ad libitum. The animals were maintained on rodent lab chow diet in a controlled environment with 50% humidity and 12 hour light/dark cycle.\nTwo dose combinations were employed. The low dose was 10 and/or 3 mg/kg of ASA and/or SAM, respectively, while the high dose was double the low dose. These doses were approximately equal (w/w) to that in commercially available combinations, e.g., BC® formula, when administered to humans.\nRats were divided into 2 groups; the first group consisted of 30 rats which were assigned to 5 subgroups, 6 rats each, according to the following treatment scheme:\nThe second group consisted of 4 subgroups and were administered double the dose received by the first group (with the exception of subgroup III).\nThe rats were fasted overnight (~18 hr.) before administration of the treatments and were allowed water ad libitum. The drug(s) to be given were prepared fresh in the morning of the study, dissolved in 2.5 ml of deionized water and gavaged to rats. […]\nThe samples were collected by heparinized plastic syringes and transferred to polyethylene test tubes. The samples, ~300 μl each, were rapidly centrifuged at 1800×g for 15 minutes at 4° C.\nThe terminal elimination rate constant (ke) was estimated by linear regression of the terminal β phase of the plasma concentration vs. time curves. The area under the curve (AUC.infin.) was calculated by using the trapezoidal method from zero to the last measured plasma concentration. The half-life of elimination (t1/2β) was obtained by the equation t1/2β =0.693/ke.\nTotal body clearance (ClT) was estimated by the equation ClT =Dose/AUC assuming a complete absorption of ASA and SAM (Iwamoto et al., 1982; Iwamoto et al., 1983). The apparent volume of distribution Vd was calculated from the formula, Vd =ClT /ke."}, "platelet cyclooxygenase": {"tested_on": "platelet cyclooxygenase", "test": "Thromboxane B2 synthesis by arachidonic acid-stimulated platelet-rich plasma in vitro", "assay_type": "cell-based, male Sprague-Dawley rats", "conditions": "for Effect on TX B2 formation / platelet cyclooxygenase: arachidonic acid-stimulated PRP", "from_the_text": "Was done manually by the method of Brecher and Conkite (1953) using phase contrast microscopy (Balplan) with a 40×annulus, 40×phase objective, and 10×ocular (total of 400×), and a special platelet counting chamber (American Optical Corp., Buffalo, N.Y.) and dilution with 1% ammonium oxalate. The platelet-rich plasma (PRP) was adjusted by dilution with platelet-poor plasma (PPP) to give a final count of 1×10^9 platelets/ml.\nArachidonic acid (as the sodium salt, >99.0% pure) was obtained from Sigma Chemical Co. and a stock solution of 34.5 mM was prepared by dissolving in isotonic saline. 20 μl of the stock solution were added to 440 μl of PRP (400 μl of PRP and 20 or 40 μl of treatment solution ±20 μl of saline) to make a 23 fold dilution. The final concentration of AA in PRP was 1.5 mM.\nEDTA solution was prepared by adding 2 gm disodium EDTA and 0.8 gm NaCl and were adjusted to pH 7.4 with NaOH and made up to a final volume of 100 ml in distilled water. ASA solution was prepared by dissolving 30 mg in 10 ml of isotonic saline to make a solution of 3 mg/ml.\n950 μl of EDTA solution were added to 50 μl of ASA solution and the mixture was vortexed. 40 μl of the mixture were pipetted in the experiment test tubes to stop further prostaglandin production.\nPlatelet-rich plasma (PRP) was prepared from male Sprague-Dawley rats (300-325 gm). The blood was collected by heart puncture and added to 3.8% citrate solution, final volume 9:1, blood:citrate. The blood was centrifuged at 120×g (750 rpm) for 15 minutes at 4° C. to obtain PRP. The rest of the blood was spun at 1800×g (3000 rpm) for 10 minutes to get the PPP which was used later for dilution of the PRP to achieve the final desired platelet concentration of 1×10^9 platelets/ml. 400 μl of PRP, containing 4×10^8 platelets, were pipetted in polypropylene tubes and the following treatment groups were studied:\n1--Baseline (-ve control) tubes: to measure the baseline production of Thromboxane B2 (TX B2) by platelets during the time of the experiment, 60 μl of saline were added and left for 10 minutes in a shaking water bath at 37° C.\n2--Control (+ve control) tubes: 20 μl of arachidonic acid (AA) solution were added to achieve a final concentration of 1.5 mM and the tubes were incubated […].\n3--ASA and/or SAM treatment tubes: 20 μl of ASA (final conc. 130 μg/ml), 20 μl of SAM solution (final conc. 40 μg/ml), 20 μl of ASA/SAM(L) solution (final conc. 130/40 μg/ml) or 20 μl of ASA/SAM(H) solution (final conc. 130/120 μg/ml) were added to PRP together with 20 μl of saline for 10 minutes, then 20 μl of AA solution were added for additional 10 minutes.\n4--ASA/SA treatment: 20 μl of ASA/SA solution (final conc. 130/130 μg/ml) and 20 μl of saline were added to the tubes for 10 minutes before AA was added for further 10 minutes.\n5--ASA/SA/SAM treatment: 20 μl of ASA/SA solution (130/130 μg/ml as final conc.) and 20 μl of […] in low (L) or high (H) concentrations (40 or 120 μg/ml, final conc.) were added simultaneously to PRP followed 10 minutes later by AA.\n6--SAM/SA treatment: 20 μl of SAM solution (final conc. 40 μg/ml) and 20 μl of SA solution (final conc. 130 μg/ml) were added followed 10 minutes later by AA for additional 10 minutes.\nAlso, the effect of SAM when administered first to the platelets followed 10 minutes later by ASA was studied to know whether the effect of SAM is time dependent or not.\nDuring the treatment, all the tubes were incubated at 37° C. in a shaking water bath. Ten minutes after the addition of AA, or saline (for the control tubes), the experiment was ended by addition of 40 μl of EDTA/ASA solution. The tubes were immediately centrifuged at 1800×g for 15 minutes at 4° C. to precipitate the platelets and 100 μl of the supernatant were obtained for estimation of their content of TX B2 using a specific radioimmunoassay (Amersham International) (vide infra).\nRadioimmunoassay Procedure for Measurement of Thromboxane B2 and 6-keto PG F1alpha […]"}, "[2]": {"conditions": "cited from earlier work; for Absorption (ASA) / bioavailability (SAM) from oral solution vs solid forms: oral solutions vs tablets or suspensions"}, "[3]": {"conditions": "oral 14C-SAM 3 mg/kg, alone or with ASA 10 mg/kg"}, "[4]": {"conditions": "oral 14C-SAM 6 mg/kg, alone or with ASA 20 mg/kg"}, "[5]": {"conditions": "ASA 20 mg/kg with 14C-SAM 6 mg/kg"}}, "note": "“Also recorded” adds a separate entry of the source."}
{"smiles": "N[14C](=O)c1ccccc1O", "note": "[^14 C-SAM]", "values": [{"measurement": "C1T total body clearance of 14C", "setting": "[1]; [3]", "result": "543.7 ± 89.5", "unit": "mL/h"}, {"measurement": "Cmax of 14C", "setting": "[1]; [3]", "result": "1.8 ± 0.3", "unit": "µg/mL"}, {"measurement": "T1/2β elimination half-life of 14C", "setting": "[1]; [3]", "result": "1.1 ± 0.24", "unit": "h"}, {"measurement": "Vd apparent volume of distribution of 14C", "setting": "[1]; [3]", "result": "975 ± 152", "unit": "mL"}, {"measurement": "AUC.infin. of 14C", "setting": "[1]; [3]", "result": "1.9 ± 0.4", "unit": "μ · hr/ml"}, {"measurement": "C1T total body clearance of 14C", "setting": "[1]; [4]", "result": "501.1 ± 64.9", "unit": "mL/h"}, {"measurement": "Cmax of 14C", "setting": "[1]; [4]", "result": "3.7 ± 0.5", "unit": "µg/mL"}, {"measurement": "T1/2β elimination half-life of 14C", "setting": "[1]; [4]", "result": "1.1 ± 0.1", "unit": "h"}, {"measurement": "Vd apparent volume of distribution of 14C", "setting": "[1]; [4]", "result": "824 ± 156", "unit": "mL"}, {"measurement": "AUC.infin. of 14C", "setting": "[1]; [4]", "result": "3.9 ± 0.5", "unit": "μ · hr/ml"}]}
{"smiles": "NC(=O)c1ccccc1O", "note": "[SAM, Salicylamide]", "values": [{"measurement": "Reversal of SA effect by SAM", "setting": "platelet cyclooxygenase; SAM 40 μg/ml with ASA/SA", "result": "~ 60%"}, {"measurement": "Reversal of SA effect by SAM", "setting": "platelet cyclooxygenase; SAM 120 μg/ml with ASA/SA", "result": "completely preempted SA effect"}, {"measurement": "Effect of SAM on ASA inhibition of TX B2 synthesis", "setting": "platelet cyclooxygenase; SAM 40 or 120 μg/ml coadministered with ASA", "result": "did not influence ASA inhibition of TX B2 synthesis; also recorded: did not alter ASA-induced inhibition of platelet cyclooxygenase"}, {"measurement": "Effect on TX B2 formation / platelet cyclooxygenase", "setting": "platelet cyclooxygenase", "result": "did not change TX B2 production compared to control"}, {"measurement": "Effect on the aspirin-antagonistic effect of SA", "setting": "platelet cyclooxygenase; platelet cyclooxygenase", "result": "dose-dependently quench the aspirin-antagonistic effect of SA"}, {"measurement": "Absorption (ASA) / bioavailability (SAM) from oral solution vs solid forms", "setting": "[2]", "result": "superior"}]}
{"smiles": "CC(=O)Oc1ccccc1C(=O)O", "note": "[ASA, acetylsalicylic acid]", "values": [{"measurement": "Effect of ASA addition to SAM/SA on TX B2", "setting": "platelet cyclooxygenase", "result": "significant blocking of platelet cyclooxygenase"}, {"measurement": "Effect on TX B2 formation / platelet cyclooxygenase", "setting": "platelet cyclooxygenase", "result": "significant inhibition of TX B2 formation"}, {"measurement": "Apparent volume of distribution", "setting": "[2]; children", "result": "0.12 to 0.14", "unit": "L/kg"}, {"measurement": "Fraction reaching the peripheral circulation intact", "setting": "[2]; oral aspirin, man", "result": "about 68%"}, {"measurement": "Time of peak plasma concentration", "setting": "[2]; oral soluble aspirin preparation, humans", "result": "15 to 25", "unit": "min"}, {"measurement": "Absorption (ASA) / bioavailability (SAM) from oral solution vs solid forms", "setting": "[2]", "result": "superior"}, {"measurement": "Absorption", "setting": "[2]; oral, stomach and upper small intestine", "result": "rapidly and usually completely absorbed"}, {"measurement": "Effect of ASA on AUC.infin. of 14C after 14C-SAM", "setting": "[1]; [5]", "result": "significantly increased"}, {"measurement": "Effect of ASA on elimination half-life of 14C after 14C-SAM", "setting": "[1]; [5]", "result": "significantly increased"}, {"measurement": "Effect of ASA on SAM kinetics", "setting": "[1]; ASA low dose 10 mg/kg", "result": "did not significantly effect SAM kinetics"}, {"measurement": "Effect of ASA on total body clearance of SAM", "setting": "[1]; low and high dose combinations", "result": "tended to decrease"}]}
